Results published in US3940479A (Meiji Seika Kaisha, Ltd., priority 1974, dated 1976).

Each molecule was assayed on Bacillus polymyxa BN-109 (assay: Sensitivity of producing strain BN-109 towards antibiotics (disc method)).
Assay type: cell-based
Description: 14. Sensitivity towards antibiotics (disc method):
In the case of `[H]/N=C(/N)N[C@H]1[C@H](O)[C@@H](O)[C@H](O[C@@H]2O[C@@H](C)[C@](O)(C=O)[C@H]2O[C@@H]2O[C@@H](CO)[C@H](O)[C@@H](O)[C@@H]2NC)[C@@H](N/C(N)=N\[H])[C@@H]1O` [Streptomycin], the Sensitivity towards antibiotics is reported as “Sensitive”.
With `O=C(Cc1cccs1)N[C@@H]1C(=O)N2C(C(=O)[O-])=C(C[n+]3ccccc3)CS[C@H]12` [cephalolidin] the Sensitivity towards antibiotics was “Sensitive”.
For `O=C(N[C@H](CO)[C@H](O)c1ccc([N+](=O)[O-])cc1)C(Cl)Cl` [chloramphenical], the Sensitivity towards antibiotics was “Sensitive”.
`CC[C@H]1OC(=O)[C@H](C)[C@@H](O[C@H]2C[C@@](C)(OC)[C@@H](O)[C@H](C)O2)[C@H](C)[C@@H](O[C@@H]2O[C@H](C)C[C@H](N(C)C)[C@H]2O)[C@](C)(O)C[C@@H](C)C(=O)[C@H](C)[C@@H](O)[C@]1(C)O` [erythromycin] was tested, and the Sensitivity towards antibiotics was “Sensitive”.
For `NC[C@H]1O[C@H](O[C@H]2[C@H](O)[C@@H](O[C@H]3O[C@H](CO)[C@@H](O)[C@H](N)[C@H]3O)[C@H](N)C[C@@H]2N)[C@H](O)[C@@H](O)[C@@H]1O` [kanamycin], the Sensitivity towards antibiotics was “Sensitive”.
`CCn1cc(C(=O)O)c(=O)c2ccc(C)nc21` [nalidixic acid] was tested, and the Sensitivity towards antibiotics was “Sensitive”.
For `CC1(C)S[C@@H]2[C@H](NC(=O)Cc3ccccc3)C(=O)N2[C@H]1C(=O)O` [penicillin], the Sensitivity towards antibiotics was “Sensitive”.
`CN(C)C1C(=O)C(C(N)=O)=C(O)C2(O)C(=O)C3=C(O)c4c(O)cccc4C(C)(O)C3CC12` (centres unmarked) [tetracyclin] was tested, and the Sensitivity towards antibiotics was “Sensitive”.
With `NC[C@H]1O[C@H](O[C@H]2[C@H](O[C@@H]3O[C@H](CO)[C@@H](O)[C@H]3O)[C@@H](O)[C@H](N)C[C@@H]2N)[C@H](N)[C@@H](O)[C@@H]1O` [vistamycin] the Sensitivity towards antibiotics was “Sensitive”.
In the case of Polymyxin B, the Sensitivity towards antibiotics is reported as “Resistant”.
For colistin, the Sensitivity towards antibiotics was “Resistant”.
